Where two headings read alike, the source gives them in different places.
What was measured:
Format in all cases: in vivo
[1] = tested on: Italian ryegrass (Lolium multiflorum); assay: Test B pre-/postemergence plant response
In short: (§1)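 Evaluation is visual, about 10 days after application, rating injury from 0 (none) to 100 (complete control) relative to untreated controls. Application was a preemergence soil spray on seeded pots or a postemergence spray on one- to two-leaf plants.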

kochia (Kochia scoparia) [2] = assay: Test B pre-/postemergence plant response
In short: as §1

[3] = tested on: ragweed (common ragweed, Ambrosia elatior); assay: Test B pre-/postemergence plant response
In short: as §1

kochia (Kochia scoparia) [4] = assay: Test D postemergence plant response; details: Bassia scoparia, post-emergence
In short: (§2)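 The formulated test chemicals were applied over the foliage of young potted plants (2 to 18 cm tall), which were then held under greenhouse conditions. Between days 13 and 15 each species was rated by eye versus controls, from 0 for no effect up to 100 for complete control.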

wild oat (Avena fatua) = assay: Test D postemergence plant response; details: Avena fatua, post-emergence
In short: as §2

[5] = tested on: Italian ryegrass (Lolium multiflorum); assay: Test F pre-/postemergence plant response; details: Lolium multiflorum, scale 0 to 100, read-out: Plant response rating, Ryegrass, Italian; for pest or weed control at 16 g/ha: 16 g ai/ha; for pest or weed control at 31 g/ha: 31 g ai/ha; for pest or weed control at 125 g/ha: 125 g ai/ha
Description: (§3) Seeds of plant species selected from corn (Zea mays), soybean (Glycine max), velvetleaf (Abutilon theophrasti), lambsquarters (Chenopodium album), wild poinsettia (Euphorbia heterophylla), palmer pigweed (Amaranthus palmeri), waterhemp (common waterhemp, Amaranthus rudis), surinam grass (Brachiaria decumbens), large (Lg) crabgrass (Digitaria sanguinalis), Brazilian crabgrass (Digitaria horizontalis), fall panicum (Panicum dichotomiflorum), giant foxtail (Setaria faberii), green foxtail (Setaria viridis), goosegrass (Eleusine indica), johnsongrass (Sorghum halepense), ragweed (common ragweed, Ambrosia elatior), barnyardgrass (Echinochloa crus-galli), sandbur (southern sandbur, Cenchrus echinatus), arrowleaf sida (Sida rhombifolia), Italian ryegrass (Lolium multiflorum), dayflower (Virginia (VA) dayflower, Commelina virginica), field bindweed (Convolvulus arvensis), cocklebur (common cocklebur, Xanthium strumarium), momingglory (Ipomoea coccinea), nightshade (eastern black nightshade, Solanum ptycanthum), kochia (Kochia scoparia), yellow nutsedge (Cyperus esculentus), and hairy beggarticks (Bidens pilosa), were planted into a silt loam soil and treated preemergence with test chemicals formulated in a non-phytotoxic solvent mixture which included a surfactant.
(§4) At the same time, plants from these crop and weed species and also waterhemp_RES1, (ALS & Triazine resistant common waterhemp, Amaranthus rudis), and waterhemp_RES2, (ALS & HPPD resistant common waterhemp, Amaranthus rudis) were treated with postemergence applications of test chemicals formulated in the same manner. Plants ranged in height from 2 to 18 cm for postemergence treatments (1- to 4-leaf stage).
(§5) Treated plants and controls were maintained in a greenhouse for 14 to 21 days, after which time all species were compared to controls and visually evaluated. Plant response ratings, summarized in Table F, are based on a scale of 0 to 100 where 0 is no effect and 100 is complete control. A dash (-) response means no test result.

kochia (Kochia scoparia) [6] = assay: Test F pre-/postemergence plant response; details: Bassia scoparia, scale 0 to 100, read-out: Plant response rating, Kochia; for pest or weed control at 16 g/ha: 16 g ai/ha; for pest or weed control at 31 g/ha: 31 g ai/ha; for pest or weed control at 125 g/ha: 125 g ai/ha
Description: as §3, §4, §5

[7] = tested on: nightshade (eastern black nightshade, Solanum ptycanthum); assay: Test F pre-/postemergence plant response; details: Solanum, pre-emergence, scale 0 to 100, read-out: Plant response rating, Nightshade
Description: as §3, §4, §5

[8] = tested on: palmer pigweed (Amaranthus palmeri); assay: Test F pre-/postemergence plant response; details: Amaranthus palmeri, scale 0 to 100, read-out: Plant response rating, Pigweed, Palmer
Description: as §3, §4, §5

[9] = tested on: waterhemp_RES1 (ALS & Triazine resistant common waterhemp, Amaranthus rudis); assay: Test F postemergence plant response; details: scale 0 to 100
In short: (§6)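 Rated visually versus controls, 0 (no effect) to 100 (complete control), after 14–21 days in greenhouse. Compounds were sprayed postemergence on seedlings at 1- to 4-leaf stage, 2–18 cm tall.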

[10] = tested on: waterhemp_RES2 (ALS & HPPD resistant common waterhemp, Amaranthus rudis); assay: Test F postemergence plant response; details: scale 0 to 100
In short: as §6

[11] = 125 g ai/ha, postemergence, 0 to 100 scale, 0 no effect, 100 complete control
[12] = Postemergence, 500 g ai/ha, 0 to 100 scale (0 no effect, 100 complete control)
[13] = Preemergence, 125 g ai/ha, 0 to 100 scale where 0 is no effect and 100 is complete control
[14] = Preemergence, 500 g ai/ha, 0 to 100 scale where 0 is no effect and 100 is complete control
[15] = post-emergence, 8 g ai/ha Postemergence
[16] = post-emergence, 62 g ai/ha, Postemergence
[17] = pre-emergence, 8 g ai/ha Preemergence

FC(F)c1cc(-c2ccccc2Oc2ncc(Cl)cn2)on1 [Compound 53, 5-chloro-2-[2-[3-(difluoromethyl)-5-isoxazolyl]phenoxy]pyrimidine]
Plant response rating, Ryegrass, Italian [1, 11]: 80
Plant response rating, Ryegrass, Italian [1, 12]: 100
Plant response rating, Ryegrass, Italian [1, 13]: 10
Plant response rating, Ryegrass, Italian [1, 14]: 40
Plant response rating, Kochia (kochia (Kochia scoparia) [2]; [11]): 100
Plant response rating, Kochia (kochia (Kochia scoparia) [2]; [12]): 100
Plant response rating, Kochia (kochia (Kochia scoparia) [2]; [13]): 100
Plant response rating, Kochia (kochia (Kochia scoparia) [2]; [14]): 100
Plant response rating, Ragweed [3, 11]: 60
Plant response rating, Ragweed [3, 12]: 90
Plant response rating, Ragweed [3, 13]: 10
Plant response rating, Ragweed [3, 14]: 50
pest or weed control at 16 g/ha (kochia (Kochia scoparia) [4]; 16 g ai/ha, scale 0 to 100 (0 no effect, 100 complete control), read-out: Kochia plant response rating): 90%
pest or weed control at 31 g/ha (kochia (Kochia scoparia) [4]; 31 g ai/ha, scale 0 to 100 (0 no effect, 100 complete control), read-out: Kochia plant response rating): 100%
pest or weed control at 62 g/ha (kochia (Kochia scoparia) [4]; 62 g ai/ha, scale 0 to 100, 0 no effect, 100 complete control, read-out: Plant response rating, Kochia): 100%
pest or weed control at 125 g/ha (kochia (Kochia scoparia) [4]; 125 g ai/ha, scale 0 to 100, 0 no effect, 100 complete control, read-out: Plant response rating, Kochia): 100%
pest or weed control at 16 g/ha (wild oat (Avena fatua); 16 g ai/ha, scale 0 to 100 (0 no effect, 100 complete control), read-out: Oat, Wild plant response rating): 5%
pest or weed control at 31 g/ha (wild oat (Avena fatua); 31 g ai/ha, scale 0 to 100 (0 no effect, 100 complete control), read-out: Oat, Wild plant response rating): 10%
pest or weed control at 62 g/ha (wild oat (Avena fatua); 62 g ai/ha, scale 0 to 100, 0 no effect, 100 complete control, read-out: Plant response rating, Oat, Wild): 30%
pest or weed control at 125 g/ha (wild oat (Avena fatua); 125 g ai/ha, scale 0 to 100, 0 no effect, 100 complete control, read-out: Plant response rating, Oat, Wild): 20%
pest or weed control at 8 g/ha [5, 15]: 0%
pest or weed control at 16 g/ha ([5]; post-emergence, Postemergence): 0%
pest or weed control at 31 g/ha ([5]; post-emergence, Postemergence): 0%
pest or weed control at 62 g/ha [5, 16]: 5%
pest or weed control at 125 g/ha ([5]; post-emergence, Postemergence): 0%
pest or weed control at 8 g/ha [5, 17]: 0%
pest or weed control at 16 g/ha ([5]; pre-emergence, Preemergence): 0%
pest or weed control at 31 g/ha ([5]; pre-emergence, Preemergence): 0%
pest or weed control at 125 g/ha ([5]; pre-emergence, Preemergence): 0%
pest or weed control at 62 g/ha ([5]; pre-emergence, Preemergence): 0%
pest or weed control at 8 g/ha (kochia (Kochia scoparia) [6]; [15]): 50%
pest or weed control at 16 g/ha (kochia (Kochia scoparia) [6]; post-emergence, Postemergence): 60%
pest or weed control at 31 g/ha (kochia (Kochia scoparia) [6]; post-emergence, Postemergence): 80%
pest or weed control at 62 g/ha (kochia (Kochia scoparia) [6]; [16]): 95%
pest or weed control at 125 g/ha (kochia (Kochia scoparia) [6]; post-emergence, Postemergence): 98%
pest or weed control at 8 g/ha (kochia (Kochia scoparia) [6]; [17]): 0%
pest or weed control at 16 g/ha (kochia (Kochia scoparia) [6]; pre-emergence, Preemergence): 0%
pest or weed control at 31 g/ha (kochia (Kochia scoparia) [6]; pre-emergence, Preemergence): 20%
pest or weed control at 125 g/ha (kochia (Kochia scoparia) [6]; pre-emergence, Preemergence): 100%
pest or weed control at 62 g/ha (kochia (Kochia scoparia) [6]; pre-emergence, Preemergence): 50%
pest or weed control at 16 g/ha ([7]; 16 g ai/ha Preemergence): 35%
pest or weed control at 31 g/ha ([7]; 31 g ai/ha Preemergence): 90%
pest or weed control at 125 g/ha ([7]; 125 g ai/ha Preemergence): 98%
pest or weed control at 62 g/ha ([7]; Preemergence): 98%
pest or weed control at 8 g/ha [8, 15]: 70%
pest or weed control at 16 g/ha ([8]; post-emergence, 16 g ai/ha Postemergence): 65%
pest or weed control at 31 g/ha ([8]; post-emergence, 31 g ai/ha Postemergence): 90%
pest or weed control at 62 g/ha ([8]; post-emergence, 62 g ai/ha Postemergence): 100%
pest or weed control at 125 g/ha ([8]; post-emergence, 125 g ai/ha Postemergence): 100%
pest or weed control at 8 g/ha [8, 17]: 0%
pest or weed control at 16 g/ha ([8]; pre-emergence, 16 g ai/ha Preemergence): 0%
pest or weed control at 31 g/ha ([8]; pre-emergence, 31 g ai/ha Preemergence): 90%
pest or weed control at 125 g/ha ([8]; pre-emergence, 125 g ai/ha Preemergence): 100%
pest or weed control at 62 g/ha ([8]; pre-emergence, Preemergence): 100%
Plant response rating, Waterhemp_RES1 ([9]; 8 g ai/ha Postemergence): 70
Plant response rating, Waterhemp_RES1 ([9]; 16 g ai/ha Postemergence): 85
Plant response rating, Waterhemp_RES1 ([9]; 31 g ai/ha Postemergence): 90
Plant response rating, Waterhemp_RES1 ([9]; 62 g ai/ha Postemergence): 95
Plant response rating, Waterhemp_RES1 ([9]; 125 g ai/ha Postemergence): 100
Plant response rating, Waterhemp_RES2 ([10]; 8 g ai/ha Postemergence): 70
Plant response rating, Waterhemp_RES2 ([10]; 16 g ai/ha Postemergence): 80
Plant response rating, Waterhemp_RES2 ([10]; 31 g ai/ha Postemergence): 90
Plant response rating, Waterhemp_RES2 ([10]; 62 g ai/ha Postemergence): 100
Plant response rating, Waterhemp_RES2 ([10]; 125 g ai/ha Postemergence): 100
